Data on five compounds can be found in PubChem BioAssay AID2060886 (Molecular Pharmacology Branch, DTP, NCI, 2025).

As usually defined, the IC50 is the concentration at which inhibition is half-maximal. In general, viability, T/C refers to the ratio of treated to control.

The test concerns 653999-131-R-J2-PDC complex spheroids, growth inhibition. Briefly: Anticancer human tumor 653999-131-R-J2-PDC patient-derived lung adenocarcinoma cell line growth inhibition [RAS]. The note with it: for viability, T/C: stronger effect = lower value. The procedure, abridged: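 Multi-cell-type spheroids: tumor cells plus HUVEC endothelial cells and mesenchymal stem cells. RAS-pathway inhibitors were combined with targeted agents, each dosed in half-log steps down from clinical Cmax, or from 10 microM when Cmax was unknown.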

Setting [1] is: curve of first compound, second compound 0.000949 µM.
Setting [2] is: curve of first compound, second compound 0.003 µM.
Where [3] appears, read: curve of first compound, second compound 0.00949 µM.
Where [4] appears, read: curve of first compound, second compound 0.03 µM.
Setting [5] is: curve of first compound, second compound 0.0949 µM.
Where [6] appears, read: curve of first compound, second compound 0.3 µM.
Where [7] appears, read: second compound 0.000949 µM, first compound 0.0316 µM.
Where [8] appears, read: second compound 0.000949 µM, first compound 0.1 µM.
[9] abbreviates: second compound 0.000949 µM, first compound 0.316 µM.
Setting [10] is: second compound 0.000949 µM, first compound 1 µM.
[11] abbreviates: second compound 0.003 µM, first compound 0.0316 µM.
The mark [12] stands for this setting: second compound 0.003 µM, first compound 0.1 µM.
The mark [13] stands for this setting: second compound 0.003 µM, first compound 0.316 µM.
Where [14] appears, read: second compound 0.003 µM, first compound 1 µM.
The mark [15] stands for this setting: second compound 0.00949 µM, first compound 0.0316 µM.
[16] abbreviates: second compound 0.00949 µM, first compound 0.1 µM.
Setting [17] is: second compound 0.00949 µM, first compound 0.316 µM.
[18] abbreviates: second compound 0.00949 µM, first compound 1 µM.
[19] abbreviates: second compound 0.03 µM, first compound 0.0316 µM.
The mark [20] stands for this setting: second compound 0.03 µM, first compound 0.1 µM.
[21] abbreviates: second compound 0.03 µM, first compound 0.316 µM.
Where [22] appears, read: second compound 0.03 µM, first compound 1 µM.
[23] abbreviates: second compound 0.0949 µM, first compound 0.0316 µM.
The mark [24] stands for this setting: second compound 0.0949 µM, first compound 0.1 µM.
[25] abbreviates: second compound 0.0949 µM, first compound 0.316 µM.
Where [26] appears, read: second compound 0.0949 µM, first compound 1 µM.
Setting [27] is: second compound 0.3 µM, first compound 0.0316 µM.
[28] abbreviates: second compound 0.3 µM, first compound 0.1 µM.
Where [29] appears, read: second compound 0.3 µM, first compound 0.316 µM.
The mark [30] stands for this setting: second compound 0.3 µM, first compound 1 µM.
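Note: spheroids exposed to the agents for seven days before the readout.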

For `CCN1CCN(Cc2ccc(Nc3ncc(F)c(-c4cc(F)c5nc(C)n(C(C)C)c5c4)n3)nc2)CC1` + CCn1c(-c2cc(N3CCN(C)CC3)cnc2C(C)OC)c2c3cc(ccc31)-c1csc(n1)CC(NC(=O)C1CC1C)C(=O)N1CCCC(N1)C(=O)OCC(C)(C)C2, the IC50 runs as follows: under setting [1], above 1000 nM; under setting [2], 94.8 nM; under setting [3], 5.9 nM; under setting [4], below 3.16 nM; under setting [5], below 3.16 nM; under setting [6], below 3.16 nM. Also, the viability, T/C is, setting by setting: (second compound 0.000949 µM, first compound 0.00316 µM) 81.5%; (second compound 0.000949 µM, first compound 0.01 µM) 62.4%; under setting [7], 66.9%; under setting [8], 58.1%; under setting [9], 62.6%; under setting [10], 58%. For the same compound, the viability, T/C runs as follows: (second compound 0.003 µM, first compound 0.00316 µM) 63.4%; (second compound 0.003 µM, first compound 0.01 µM) 66.9%; under setting [11], 62.3%; under setting [12], 49.5%; under setting [13], 46.2%; under setting [14], 47.5%. For the same compound, the viability, T/C by setting is: (second compound 0.00949 µM, first compound 0.00316 µM) 56.6%; (second compound 0.00949 µM, first compound 0.01 µM) 45.9%; under setting [15], 37%; under setting [16], 30.4%; under setting [17], 34%; under setting [18], 33.1%. Besides, the viability, T/C is, setting by setting: (second compound 0.03 µM, first compound 0.00316 µM) 24.2%; (second compound 0.03 µM, first compound 0.01 µM) 30.9%; under setting [19], 30.9%; under setting [20], 24.4%; under setting [21], 26.3%; under setting [22], 29.4%. The viability, T/C was 30.6% (second compound 0.0949 µM, first compound 0.00316 µM); 26.6% (second compound 0.0949 µM, first compound 0.01 µM); 15.7% under setting [23]; 22.2% under setting [24]; 24.3% under setting [25]; 25.4% under setting [26]. Further, the viability, T/C is, setting by setting: (second compound 0.3 µM, first compound 0.00316 µM) 23.3%; (second compound 0.3 µM, first compound 0.01 µM) 24.7%; under setting [27], 17.5%; under setting [28], 17.7%; under setting [29], 18.1%; under setting [30], 29.2%.
Take `CCc1c2c(nc3ccc(O)cc13)-c1cc3c(c(=O)n1C2)COC(=O)[C@]3(O)CC`: the viability, T/C is 85% [middle of 4 runs] (compound 0.000949 µM); 66.5% [middle of 4 runs] (compound 0.003 µM); 49.5% [middle of 4 runs] (compound 0.00949 µM); 38.3% [middle of 4 runs] (compound 0.03 µM); 26.5% [middle of 4 runs] (compound 0.0949 µM); 13.7% [middle of 4 runs] (compound 0.3 µM). The concentration for half-maximal inhibition (IC50) (curve of compound) is 9.95 nM [middle of 4 runs].
As for `CC(C)NCC(C(=O)N1CCN(c2ncnc3c2C(C)CC3O)CC1)c1ccc(Cl)cc1` (stereo not drawn), the viability, T/C is 96.7% [middle of 4 runs] (compound 0.0316 µM); 96.7% [middle of 4 runs] (compound 0.1 µM); 77.1% [middle of 4 runs] (compound 0.316 µM); 54.2% [middle of 4 runs] (compound 1 µM); 46.6% [middle of 4 runs] (compound 3.16 µM); 34.9% [middle of 4 runs] (compound 10 µM).
Consider `CCN1CCN(Cc2ccc(Nc3ncc(F)c(-c4cc(F)c5nc(C)n(C(C)C)c5c4)n3)nc2)CC1`, for which the viability, T/C was 87.8% [middle of 4 runs] (compound 0.00316 µM); 96.6% [middle of 4 runs] (compound 0.01 µM); 73.8% [middle of 4 runs] (compound 0.0316 µM); 80.7% [middle of 4 runs] (compound 0.316 µM); 83.8% [middle of 4 runs] (compound 1 µM). The IC50 (curve of compound) is above 1000 nM.
`CCC(CC)c1cc(NC2CCC(N)C2)n2nccc2n1` (stereo not drawn) + CCn1c(-c2cc(N3CCN(C)CC3)cnc2C(C)OC)c2c3cc(ccc31)-c1csc(n1)CC(NC(=O)C1CC1C)C(=O)N1CCCC(N1)C(=O)OCC(C)(C)C2: the IC50 was 1280 nM under setting [1]; 722 nM under setting [2]; 195 nM under setting [3]; below 31.6 nM under setting [4]; below 31.6 nM under setting [5]; below 31.6 nM under setting [6]. For the same compound, the viability, T/C reads like this: under setting [7], 84.6%; under setting [8], 101%; under setting [9], 91.2%; under setting [10], 59.9%; (second compound 0.000949 µM, first compound 3.16 µM) 12%; (second compound 0.000949 µM, first compound 10 µM) 15%. The viability, T/C was 59.1% under setting [11]; 88.6% under setting [12]; 84.2% under setting [13]; 39.2% under setting [14]; 10.5% (second compound 0.003 µM, first compound 3.16 µM); 18.8% (second compound 0.003 µM, first compound 10 µM). Moreover, the viability, T/C runs as follows: under setting [15], 55.8%; under setting [16], 56.5%; under setting [17], 45.6%; under setting [18], 26.4%; (second compound 0.00949 µM, first compound 3.16 µM) 16.4%; (second compound 0.00949 µM, first compound 10 µM) 17.4%. Moreover, the viability, T/C was 38.8% under setting [19]; 51% under setting [20]; 29.6% under setting [21]; 20.4% under setting [22]; 12.5% (second compound 0.03 µM, first compound 3.16 µM); 18.8% (second compound 0.03 µM, first compound 10 µM). Besides, the viability, T/C is, setting by setting: under setting [23], 29.3%; under setting [24], 27.8%; under setting [25], 28.9%; under setting [26], 12.1%; (second compound 0.0949 µM, first compound 3.16 µM) 11.7%; (second compound 0.0949 µM, first compound 10 µM) 18.9%. Besides, the viability, T/C under setting [27] was 29.8%; the viability, T/C under setting [28] is 24.9%; the viability, T/C under setting [29] was 26.4%; the viability, T/C under setting [30] was 12.7%; the viability, T/C (second compound 0.3 µM, first compound 3.16 µM) is 13.3%; the viability, T/C (second compound 0.3 µM, first compound 10 µM) is 17.5%.
